{"source": "patent US20240408114A1", "about": "“METHODS FOR PREVENTING AND TREATING ACUTE KIDNEY INJURY” (The Johns Hopkins University, priority 2021, published 2024)", "key": {"glutaminase": {"test_system": "glutaminase", "assay": "Glutaminase activity in post-ischemic kidney tissues", "assay_type": "in vivo, mouse", "settings": "post-ischemic kidney tissues at 24 h after IRI; JHU083 1.83 mg/kg i.p. every other day; P=0.008", "method": "To confirm that JHU083 suppressed glutamine-related enzymes in kidneys, glutaminase activities were measured in post-ischemic kidney tissues at 24 h after IRI.\n(§1) Glutamine antagonist, JHU083 was synthesized as previously described, Rais et al., 2016, and dissolved in 50 mM […] 4-(2-hydroxyethyl)-1-piperazineethanesulfonic acid (HEPES) buffered 0.9% saline. Aliquot stocks were stored at −80° C. and thawed right before injection. Before the IRI surgery or cisplatin injection, mice were administered 1.83 mg/kg JHU083 (equivalent to 1 mg/kg DON) or vehicle (50 mM HEPES buffered 0.9% saline) every other day via intraperitoneal injection. Following 4 consecutive dosages, mice underwent IRI surgery or cisplatin injection. The last additional dose was given at 24 h after IRI or cisplatin injection. This dosage regimen was chosen based on efficiency and toxicity data from a previous study. Hollinger et al., 2020.\nGlutaminase activity measurements in kidney samples were adapted from previously described protocols. Engler et al., 2002. […] [^3H]-Glutamate, the reaction product, was then eluted with 0.1 N HCl and analyzed for radioactivity using Perkin Elmer's TopCount instrument in conjunction with their 96-well LumaPlates. […]"}, "[1]": {"settings": "mouse, in vivo, ip, 1.83 mg/kg", "method": "as §1"}, "kidney T cells": {"test_system": "kidney T cells", "assay": "T cells from post-cisplatin AKI kidneys, spectral flow cytometry", "assay_type": "in vivo, mouse", "method": "Given the significant protective outcomes in ischemic AKI, we subsequently tested the effect of glutamine blockade on a nephrotoxic AKI model, which is another common etiology of clinical AKI. After pretreatment with JHU083 or vehicle, 25 mg/kg of cisplatin was injected intraperitoneally. T cells were isolated and studied after 72 h after cisplatin treatment (FIG. 16A).\nKMNCs were isolated according to our previously described Percoll density gradient protocol. Ascon et al., 2006. Briefly, decapsulated kidneys were immersed and incubated in collagenase D (2 mg/mL; Sigma-Aldrich) solution for 30 min at 37° C. Samples were strained through 70 µm cell strainer (BD Bioscience, Franklin Lakes, NJ), washed, and resuspended in 40% Percoll (GE Healthcare, Chicago, IL) followed by gentle overlaying onto 80% Percoll. After centrifugation at 1,500 g for 30 min in brake off mode at room temperature, KMNCs were collected from interface between 40% and 80% Percoll. Spleens were strained through 40 µm cell strainer (BD Bioscience) and incubated with ammonium-chloride-potassium lysis buffer (Quality Biological, Gaithersburg, MD) for 3 min. Collected cells were washed and resuspended with Roswell Park Memorial Institute (RPMI) 1640 media (Thermo Fisher Scientific, Waltham, MA) containing 5% fetal bovine serum (FBS, Thermo Fisher Scientific). Cells were counted on hemocytometer using trypan blue exclusion under a microscope.\nCells were washed once with phosphate buffered saline (PBS) and stained with viability dye Zombie NIR Fixable Viability (BioLegend, San Diego, CA) for 15 min at room temperature. After washing with Cell Staining Buffer (BioLegend), cells were preincubated with anti-CD16/CD32 Fc receptor blocking antibody (S17011E, BioLegend) for 15 min to prevent nonspecific antibody binding. Subsequently, surface staining was performed in 50 μL of BD horizon™ Brilliant Stain buffer and surface staining antibody cocktail for 30 min at 4° C.: Pacific blue anti-CD44 (IM7, BioLegend), BV510 anti-CD8 (53-6.7, BioLegend), BV570 anti-CD45 (30-F11, BioLegend), BV605 anti-CD69 (H1.2F3, BioLegend), BV650 anti-NK1.1 (PK136, BioLegend), BV711 anti-PD1 (29F.1A12, BioLegend), BV785 anti-TCRβ (H57-597, BioLegend), PE-Cy5.5 anti-CD25 (PC61.5, Thermo Fisher Scientific), APC-R700 anti-CD62L (MEL-14, BD Bioscience), and APC-Fire810 anti-CD4 (GK1.5, BioLegend). Cells were fixed and permeabilized with Foxp3/Transcription Factor Staining kit (Thermo Fisher Scientific) for 30 min at room temperature and washed with permeabilization/wash buffer (Thermo Fisher Scientific). Intracellular staining was conducted in 50 μL of permeabilization/wash buffer with intracellular staining antibody cocktail for 45 min at room temperature: BV421 anti-Ki67 (16A8, BioLegend), Alexa Fluor 488 anti-CPT1a (8F6AE9, Abcam, Cambridge, UK), Alexa Fluor 532 anti-VDAC1 (20B12AF2, Abcam), PerCP-efluor 710 anti-FoxP3 (FJK-16S, Thermo Fisher Scientific), PE anti-GLUT1 (EPR3915, Abcam), Alexa Fluor 594 anti-pS6 (D68F8, Cell Signaling, Danvers, MA), PE-Cy5 anti-HKII (EPR20839, Abcam), PE-Cy7 anti-H3K27me3 (C36B11, Cell Signaling), and Alexa Fluor 647 anti-Tomm20 (EPR15581-54, Abcam). After staining, cells were washed with permeabilization/wash buffer then resuspended in Cell Staining Buffer. Samples were analyzed by 4-laser Aurora spectral flow cytometer (Cytek, Fremont, CA).\nas §1, with “The last additional dose was given at 24 h after IRI or cisplatin injection. This dosage regimen was chosen based on efficiency and toxicity data from a previous study. Hollinger et al., 2020.” left out"}, "[2]": {"settings": "post-cisplatin AKI kidneys, vehicle 21.4±2.7, P=0.001"}}}
{"smiles": "CCOC(=O)[C@H](CCC(=O)C=[N+]=[N-])NC(=O)[C@@H](N)CC(C)C", "note": "[JHU083]", "values": [{"measurement": "glutaminase activities, decrease", "setting": "glutaminase", "result": 29, "unit": "%"}, {"measurement": "body weight", "setting": "[1]", "result": "no significant differences between groups"}, {"measurement": "CD69 expression in CD4+, CD8+, and DN T cells", "setting": "kidney T cells; cisplatin AKI, FIG. 17C", "result": "reduced"}, {"measurement": "CD69+ among kidney CD8+ T cells", "setting": "kidney T cells; [2]", "result": "9.8±1.5", "unit": "%"}, {"measurement": "Ki67+ among kidney CD8+ T cells", "setting": "kidney T cells; [2]", "result": "9.8±1.5", "unit": "%"}, {"measurement": "Ki67+ among kidney CD4+ T cells", "setting": "kidney T cells; post-cisplatin AKI kidneys, vehicle 37.0±2.9, P=0.003", "result": "25.4±1.8"}, {"measurement": "CD69+ among kidney CD4+ T cells", "setting": "kidney T cells; post-cisplatin AKI kidneys, vehicle 37.0±2.9, P=0.014", "result": "25.4±1.8", "unit": "%"}, {"measurement": "CD62L+ among kidney CD4+ T cells", "setting": "kidney T cells; post-cisplatin AKI kidneys, vehicle 37.5±3.2", "result": "52.5±3.0", "unit": "%"}, {"measurement": "CD44+ among kidney CD8+ T cells", "setting": "kidney T cells; post-cisplatin AKI kidneys, vehicle 43.3±3.3, P<0.001", "result": "26.4±2.3", "unit": "%"}, {"measurement": "CD62L+ among kidney CD8+ T cells", "setting": "kidney T cells; post-cisplatin AKI kidneys, vehicle 48.9±4.2, P<0.001", "result": "76.0±2.3", "unit": "%"}, {"measurement": "CD44+ among kidney CD4+ T cells", "setting": "kidney T cells; post-cisplatin AKI kidneys, vehicle 50.2±3.4, P=0.037", "result": "40.9±2.4", "unit": "%"}]}
